Laboratory results from patent US7576099B2, “Amide derivatives as ion-channel ligands and pharmaceutical compositions and methods of using the same” (Renovis, Inc., priority 2005, dated 2009).

Experiments:
VR1 [1] = molecular target: T1, VR1 (Homo sapiens, UniProt Q8NER1); assay: Acid stimulation assay (FDSS 6000, intracellular calcium); assay type: cell-based; parameters: host or cells: only 'the cell suspension' is mentioned; conditions: final assay buffer pH5.8, 15 minutes pre-incubation
Description: The Acid-induced changes in the intracellular calcium concentration were monitored using FDSS 6000 (Hamamatsu Photonics, Japan), a fluorometric imaging system. The cell suspension in resting buffer (HBSS supplemented with 10 mM HEPES, pH 7.4) was pre-incubated with varying concentrations of the test compounds or resting buffer (buffer control) for 15 minutes at room temperature under dark conditions. The cells were automatically added the stimulating solution (HBSS supplemented with MES, final assay buffer pH5.8) by the FDSS 6000.
Target sequence in this assay (Q8NER1 whole entry, species assumed): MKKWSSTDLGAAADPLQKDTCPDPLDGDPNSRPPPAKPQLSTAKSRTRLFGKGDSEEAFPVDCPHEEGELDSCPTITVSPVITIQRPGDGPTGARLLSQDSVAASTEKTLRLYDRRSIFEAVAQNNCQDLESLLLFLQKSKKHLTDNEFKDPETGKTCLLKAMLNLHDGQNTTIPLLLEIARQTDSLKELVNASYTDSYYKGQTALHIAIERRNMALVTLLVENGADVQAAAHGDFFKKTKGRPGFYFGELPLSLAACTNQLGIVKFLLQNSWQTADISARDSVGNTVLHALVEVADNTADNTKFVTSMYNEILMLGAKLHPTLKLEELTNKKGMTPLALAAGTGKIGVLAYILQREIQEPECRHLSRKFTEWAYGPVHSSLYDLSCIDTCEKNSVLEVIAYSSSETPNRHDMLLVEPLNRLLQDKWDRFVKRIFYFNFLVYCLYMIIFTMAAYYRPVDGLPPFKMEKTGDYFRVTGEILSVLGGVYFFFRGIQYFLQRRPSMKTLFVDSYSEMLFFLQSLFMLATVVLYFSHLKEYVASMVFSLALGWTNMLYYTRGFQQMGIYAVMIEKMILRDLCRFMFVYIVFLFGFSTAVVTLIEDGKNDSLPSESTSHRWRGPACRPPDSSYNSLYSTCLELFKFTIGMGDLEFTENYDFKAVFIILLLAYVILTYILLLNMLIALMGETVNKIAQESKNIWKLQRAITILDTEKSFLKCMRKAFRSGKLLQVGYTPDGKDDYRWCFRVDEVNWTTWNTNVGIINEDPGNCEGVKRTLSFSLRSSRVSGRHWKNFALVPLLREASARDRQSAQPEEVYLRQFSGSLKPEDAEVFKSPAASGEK

VR1 [2] = molecular target: T1, VR1; assay: Calcium uptake assay (Fura2, Flex Station) in HEK 293 cells expressing hVR1; assay type: cell-based; parameters: expressed in transfected cells; host or cells: T-REx HEK 293 (Invitrogen), pcDNA5/TO vector, doxycycline induced; conditions: for inhibition at 0.3 µM: HEK293, read-out: Low pH % Inhib. @ 0.3 μM; for inhibition of the Capsaicin induced intracellular calcium response (FIGS. 2-6): 3 nM compound, capsaicin as agonist, calcium uptake assay method
Target sequence in this assay (Q8NER1 whole entry): as the sequence (Q8NER1 whole entry, species assumed) above

[3] = Half-life in human liver microsomes (HLM); assay type: in vitro ADME; conditions: human liver microsomes (HLM, HL101), pH 7.4, 1 μM compound, 0.78 mg/mL HLM, NADPH, 37° C.
Description: Test compounds (1 μM) were incubated with 3.3 mM MgCl2 and 0.78 mg/mL HLM (HL101) in 100 mM potassium phosphate buffer (pH 7.4) at 37° C. on the 96-deep well plate. The reaction mixture was split into two groups, a non-P450 and a P450 group. NADPH was only added to the reaction mixture of the P450 group. An aliquot of samples of P450 group was collected at 0, 10, 30, and 60 min time point, where 0 min time point indicated the time when NADPH was added into the reaction mixture of P450 group. An aliquot of samples of non-P450 group was collected at −10 and 65 min time point. Collected aliquots were extracted with acetonitrile solution containing an internal standard. The precipitated protein was spun down in centrifuge (2000 rpm, 15 min). The compound concentration in supernatant was measured by LC/MS/MS system.
The half-life value was obtained by plotting the natural logarithm of the peak area ratio of compounds/internal standard versus time. The slope of the line of best fit through the points yields the rate of metabolism (k). […]
Exemplary compounds of the invention were tested (1 μM), and were incubated with 3.3 mM MgCl2 and 0.78 mg/mL HLM (HL101) in 100 mM potassium phosphate buffer (pH 7.4) at 37° C. on the 96-deep well plate. […] The compound concentration in supernatant was measured by LC/MS/MS system. […]

VR1 receptor = assay: Calcium imaging assay in DRG neurons (Example 1); assay type: cell-based; conditions: 3 nM compound
Description: Therefore the functional activity of compounds at the VR1 receptor may be determined by measuring changes in intracellular calcium levels in neurons such as the dorsal root ganglion. […] Prior to assay, cells were loaded with 5 μg/ml Fura2 in normal saline solution at 37° C. for 40 minutes. Cells were then washed with normal saline to remove dye before commencement of the experiment. The plated neurons were transferred into a chamber on the stage of a Nikon eclipse TE300 microscope after which neurons were allowed to attain a stable fluorescence for about 10 minutes before beginning the experiment. The assay consists of two stages, a pretreatment phase followed by a treatment phase. First, a solution of the test compound was added from a multivalve perfusion system to the cells for 1 minute (pretreatment). […] Fura2 was excited at 340 and 380 nm to indicate relative calcium ion concentration. Changes in wavelength measurements were made throughout the course of the experiment. The fluorescence ratio was calculated by dividing fluorescence measured at 340 nm by that at 380 nm. Data were collected using Intelligent Imaging's Slidebook software.

[4] = 0.3 μM compound, low pH (protons) as agonist, HEK 293 cells expressing hVR1

inhibition at 0.3 µM (VR1 [2]; [4])	SMILES	also measured
	O=C(Nc1ccc2c(c1)OCC(CO)O2)c1ccc(/C=C/C(F)(F)F)cc1 (single isomer, unassigned) [Compound 108]	IC50 (VR1 [1]): 5 nM
101%	CC(C)(C)C#Cc1ccc(C(=O)Nc2cnc3ccccc3c2)cn1 [Compound 24]	
	O=C(Nc1cccc2cnccc12)c1ccc(C#CC(F)(F)F)cc1 [Compound 45]	inhibition of the Capsaicin induced intracellular calcium response (FIGS. 2-6) (VR1 [2]): significant inhibition
58%	O=C1COc2ccc(NC(=O)c3ccc(/C=C/C(F)(F)F)cc3)cc2N1 [Compound 57]	
19%	CC1(C)Oc2ccc(NC(=O)c3ccc(/C=C/C(F)(F)F)cc3)cc2NC1=O [Compound 58]	
83%	CN1CCC(C)(C)c2ccc(NC(=O)c3ccc(C#CC(C)(C)C)cc3)cc21 [Compound 59]	
69%	CC(C)(C)C#Cc1ccc(C(=O)Nc2cccc3cnccc23)cc1OCCN1CCOCC1 [Compound 60]	half-life at 1 μM [3]: 21 min
10%	O=C1COc2cc(NC(=O)c3ccc(/C=C/C(F)(F)F)cc3)ccc2N1 [Compound 61]	
14%	O=C(Nc1ccc2c(c1)NCCO2)c1ccc(/C=C/C(F)(F)F)cc1 [Compound 62]	
123%	O=C(Nc1ccc2c(c1)OCCN2)c1ccc(/C=C/C(F)(F)F)cc1 [Compound 63]	half-life at 1 μM [3]: 24 min
10%	CC1(C)CNc2cc(NC(=O)c3ccc(/C=C/C(F)(F)F)cc3)ccc2O1 [Compound 64]	
	O=C(Nc1ccc2c(c1)OCCN2)c1ccc(C#CC(F)(F)F)cc1 [Compound 70]	IC50 (VR1 [1]): 5 nM; Low pH % Inhib. @ 0.3 μM (VR1 [2]; [4]): 185%
83%	O=C(Oc1ccc2c(c1)OC(CO)CO2)c1ccc(C#CC2CC2)cc1 (stereo not drawn) [Compound 86]	
98%	O=C(Oc1ccc2c(c1)OCC(CO)O2)c1ccc(C#CC2CC2)cc1 (stereo not drawn) [Compound 87]	
	C/C(=C\C(F)(F)F)c1ccc(C(=O)Nc2ccc3c(c2)OCCN3)cc1 [Compound 96]	inhibition of the Capsaicin induced intracellular calcium response (FIGS. 2-6) (VR1 [2]): significant inhibition
9%	Cc1cc2c(NC(=O)c3ccc(/C=C/C(F)(F)F)cc3)cccc2nn1 [Compound 113]	
	Cc1cc(C#CC(C)(C)C)ccc1C(=O)Nc1ccc2c(c1)OCC(CO)N2 (stereo not drawn) [Compound 167]	inhibition of the Capsaicin induced intracellular calcium response (FIGS. 2-6) (VR1 [2]): significant inhibition
	Cc1cc(/C=C/C(F)(F)F)ccc1C(=O)Nc1cnc2ccccc2c1 [Compound 187]	inhibition of the Capsaicin induced intracellular calcium response (FIGS. 2-6) (VR1 [2]): significant inhibition
87%	Cc1cc(/C=C/C(F)(F)F)ccc1C(=O)Nc1cnc2c(c1)OCC(O)CN2 (stereo not drawn) [Compound 189]	
	Cc1cc(/C=C/C(F)(F)F)ccc1C(=O)Nc1ccc2sc(CO)nc2c1 [Compound 225]	inhibition of the Capsaicin induced intracellular calcium response (FIG. 1) (VR1 receptor): significant inhibition; inhibition of the Capsaicin induced intracellular calcium response (FIG. 1) (VR1 receptor; listed as compound 225): reduced; % inhibition of capsaicin induced calcium influx (VR1 receptor; treatment time 20 sec, capsaicin 250 nM): >75%
54%	Cc1cc(/C=C/C(F)(F)F)ccc1C(=O)NC1=CC2CNCCC2N=C1 (stereo not drawn) [Compound 229]	
	Cc1cc(/C=C/C(F)(F)F)ccc1C(=O)Nc1cnc2c(c1)OCC(CO)N2 (stereo not drawn) [Compound 233]	inhibition of the Capsaicin induced intracellular calcium response (FIGS. 2-6) (VR1 [2]): significant inhibition
